These are literature values, as cited in patent US20090320148A1, “OXYLIPINS FROM STEARIDONIC ACID AND GAMMA-LINOLENIC ACID AND METHODS OF MAKING AND USING THE SAME” (MARTEK BIOSCIENCES CORPORATION, priority 2006, published 2009).

The test system of data set [1] is IL-1β.
The test system of data set [2] is cell migration. The note with it: comparison with the DHA-derived oxylipin.

For `CCCCCC(O)/C=C/C=C\C/C=C\C/C=C\C/C=C\CCC(=O)O` (centres unmarked) [17-hydroxy DPAn-6], the “secretion of the pro-inflammatory cytokine IL-1β” value in data set [1] is “significantly reduced”. For the same compound, in data set [2], the “potency for inhibiting cell migration” value was “more potent than the DHA-derived oxylipin”.
With 10,17-dihydroxy DPAn-6, the “secretion of the pro-inflammatory cytokine IL-1β” value in data set [1] is given as “significantly reduced”. In addition, the “reduction of IL-1β secretion compared with DHA oxylipin derivative and indomethacin” value in data set [1] (comparison with DHA oxylipin derivative and indomethacin) is on record as “significantly larger than with that produced by either the DHA oxylipin derivative or the general anti-inflammatory agent, indomethacin”. In data set [1] (comparison with the DHA oxylipin), the “potency for reduction in IL-1β secretion” value is recorded as “more potent than the DHA oxylipin”.
